Test results published in patent US11957759B1, “Rapidly accelerated fibrosarcoma (RAF) degrading compounds and associated methods of use” (Arvinas Operations, Inc., priority 2022, dated 2024).

Key:
B-RAF V600E = target: T1, B-RAF V600E (Homo sapiens, UniProt P15056, V600E); experiment: Target protein degradation, assay A: T-Rex 293 cells, HA-B-RAF_V600E, 96 well format; assay type: cell-based; details: T-Rex 293 HA-B-RAF_V600E cells, 24 hours, Examples 1-82
T1 construct: expressed in transfected cells; host or cells: T-Rex 293 cells (Invitrogen #R71007)
T1 sequence (P15056 whole entry V600E): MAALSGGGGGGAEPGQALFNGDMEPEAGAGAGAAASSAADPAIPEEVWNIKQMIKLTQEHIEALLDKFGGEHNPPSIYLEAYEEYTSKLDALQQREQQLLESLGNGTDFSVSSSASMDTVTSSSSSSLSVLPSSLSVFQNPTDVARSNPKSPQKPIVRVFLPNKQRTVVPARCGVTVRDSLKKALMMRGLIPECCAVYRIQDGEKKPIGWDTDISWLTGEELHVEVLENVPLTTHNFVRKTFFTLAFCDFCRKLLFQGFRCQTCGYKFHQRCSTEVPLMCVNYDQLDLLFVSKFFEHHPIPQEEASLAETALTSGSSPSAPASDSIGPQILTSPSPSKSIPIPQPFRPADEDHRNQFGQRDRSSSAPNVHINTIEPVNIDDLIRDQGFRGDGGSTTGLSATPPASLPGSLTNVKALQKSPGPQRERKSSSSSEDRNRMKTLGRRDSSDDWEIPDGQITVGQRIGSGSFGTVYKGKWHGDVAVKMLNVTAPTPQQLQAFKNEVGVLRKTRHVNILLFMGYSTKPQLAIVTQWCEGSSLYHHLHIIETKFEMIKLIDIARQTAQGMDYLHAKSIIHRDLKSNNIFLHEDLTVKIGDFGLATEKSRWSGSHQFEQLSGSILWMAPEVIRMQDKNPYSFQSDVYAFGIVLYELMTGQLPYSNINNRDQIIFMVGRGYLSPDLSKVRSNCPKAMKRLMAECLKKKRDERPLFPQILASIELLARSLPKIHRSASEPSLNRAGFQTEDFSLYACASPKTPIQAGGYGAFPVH
Description: A. T-Rex 293 Cells (96 well format)
T-Rex 293 cells were purchased from Invitrogen (#R71007), and stably transfected with a pcDNA4/TO_HA-B-RAF_V600E construct, using 400 ug Zeocin for selection. V600e cells are plated in ulbecco's Modified Eagle Medium (DMEM; Gibco #11965118) containing 10% fetal bovine serum (FBS; Gibco #16000044) and 1 ng/mL doxycycline (Selleckchem #4163) at a density of 5,000 cells/well in 50 μl on poly-D-lysine (PDL) coated, black clear bottom 96-well plates (Corning #354640) and incubated for 24 hours at 37° C. with 5% CO2. The following day 50 ul of tested compound was added at 2× concentration in DMEM with a final concentration ranging from 1 μM to 0.1 nM in 0.1% dimethylsulfoxide (DMSO), and incubated for 24 hours at 37° C. with 5% CO2. At the end of the experimental treatment, the media was flicked off and cells washed once with phosphate-buffered saline (PBS)++(PBS with CaCl and MgCl) and gently replacing with 200 μl PBS++ per well. The PBS++ was removed and 50 uL 4% paraformaldehyde (PFA; EMS #15710) in PBS++ was added, and incubate at room temperature for 15 minutes. Cells were washed once with PBS++ and 50 uL 0.1% Triton X-100 (Fisher #BP151-500) in PBS++ was added. Plate was incubate for 5 minutes at room temperature. Cells were was once with PBS++. Cells were blocked with 100 uL Licor blocking buffer (Licor #927-50000) for 1 hour at room temperature. Next, 50 uL of HA antibody (CST #3724) at 1:1000 in Licor blocking buffer was added, and the plate icubate overnight at 4° C. The plates were parafilmed to prevent evaporation. Plate was washed three times with 200 uL PBS++. Fifty microliters of HCS secondary antibody solution [1:1000 Hoechst (Invitrogen #H3570), 1:1000 phalloidin (Invitrogen #A22287) and 1:5000 Alexa fluor (Invitrogen #A11008)] was added and incubated for 1 hour. Plate was wash three times with 200 uL PBS++, and imaged on a high content reader (ImageXpress Micro XLS, Molecular Devices).
(§1) The concentration of an exemplary compound that leads to half maximal degradation (DC50) as well as the maximum degradation observed (Dmax, conventionally expressed as a percentage of control) is shown below in Table 2.

B-RAF G466V = target: T2, B-RAF G466V (Homo sapiens, UniProt P15056, G466V); experiment: Target protein degradation, assay B: T-Rex 293 cells, HA-B-RAF_G466V, 96 well format; assay type: cell-based; details: T-Rex 293 HA-B-RAF_G466V cells, 24 hours, Examples 1-82
T2 construct: expressed in transfected cells; host or cells: T-Rex 293 cells (Invitrogen #R71007)
T2 sequence (P15056 whole entry G466V): as the sequence (P15056 whole entry V600E) above, with G466V, E600V counted along it
Description: B. T-Rex 293 Cells (96 Well Format)
T-Rex 293 cells were purchased from Invitrogen (#R71007), and stably transfected with a pcDNA4/TO_HA-B-RAF_G466V construct, using 400 ug Zeocin for selection. G466V cells are plated in ulbecco's Modified Eagle Medium (DMEM; Gibco #11965118) containing 10% fetal bovine serum (FBS; Gibco #16000044) and 0.75 ng/mL doxycycline (Selleckchem #4163) at a density of 5,000 cells/well in 50 μl on poly-D-lysine (PDL) coated, black clear bottom 96-well plates (Corning #354640) and incubated for 24 hours at 37° C. with 5% CO2. The following day 50 ul of tested compound was added at 2× concentration in DMEM with a final concentration ranging from 30 nM to 3 pM in 0.1% dimethylsulfoxide (DMSO), and incubated for 24 hours at 37° C. with 5% CO2. At the end of the experimental treatment, the media was flicked off and cells washed once with phosphate-buffered saline (PBS)++(PBS with CaCl and MgCl) and gently replacing with 200 μl PBS++ per well. The PBS++ was removed and 50 uL 4% paraformaldehyde (PFA; EMS #15710) in PBS++ was added, and incubate at room temperature for 15 minutes. Cells were washed once with PBS++ and 50 uL 0.1% Triton X-100 (Fisher #BP151-500) in PBS++ was added. Plate was incubate for 5 minutes at room temperature. Cells were was once with PBS++. Cells were blocked with 100 uL Licor blocking buffer (Licor #927-50000) for 1 hour at room temperature. Next, 50 uL of HA antibody (CST #3724) at 1:1000 in Licor blocking buffer was added, and the plate icubate overnight at 4° C. The plates were parafilmed to prevent evaporation. Plate was washed three times with 200 uL PBS++. Fifty microliters of HCS secondary antibody solution [1:1000 Hoechst (Invitrogen #H3570), 1:1000 phalloidin (Invitrogen #A22287) and 1:5000 Alexa fluor (Invitrogen #A11008)] was added and incubated for 1 hour. Plate was wash three times with 200 uL PBS++, and imaged on a high content reader (ImageXpress Micro XLS, Molecular Devices).
as §1

Row | SMILES | DC50 (B-RAF V600E) [nM] | Dmax (B-RAF V600E) [%] | DC50 (B-RAF G466V) [nM] | Dmax (B-RAF G466V) [%]
1 | N#Cc1c(NS(=O)(=O)N2CC[C@@H](F)C2)ccc(F)c1Oc1ccc2ncn(-c3ccc(N4CCN(CC5CN(c6ccc7c(c6)CN(C6CCC(=O)NC6=O)C7=O)C5)CC4)cc3)c(=O)c2c1 (stereo partly drawn) [Example 2, (3R)—N-{2-cyano-3-[(3-{4-[4-({1-[2-(2,6-dioxopiperidin-3-yl)-1-oxo-2,3-dihydro-1H-isoindol-5-yl]azetidin-3-yl}methyl)piperazin-1-yl]phenyl}-4-oxo-3,4-dihydroquinazolin-6-yl)oxy]-4-fluorophenyl}-3-fluoropyrrolidine-1-sulfonamide] | 50 to 500 | ≤ 35 | ≤ 1 | 35 to 70
2 | N#Cc1c(NS(=O)(=O)N2CC[C@@H](F)C2)ccc(F)c1Oc1ccc2ncn(-c3ccc(N4CCN(C(=O)CC5(O)CCN(c6ccc(C7CCC(=O)NC7=O)cc6F)CC5)CC4)nc3)c(=O)c2c1 (stereo partly drawn) [Example 69, (3R)-N-{2-cyano-3-[(3-{6-[4-(2-{1-[4-(2,6-dioxopiperidin-3-yl)-2-fluorophenyl]-4-hydroxypiperidin-4-yl}acetyl)piperazin-1-yl]pyridin-3-yl}-4-oxo-3,4-dihydroquinazolin-6-yl)oxy]-4-fluorophenyl}-3-fluoropyrrolidine-1-sulfonamide] | 50 to 500 | 35 to 70 | 1 to 10 | 35 to 70
3 | N#Cc1c(NS(=O)(=O)N2CC[C@@H](F)C2)ccc(F)c1Oc1ccc2ncn(-c3ccc(N4CCC(CN5CCC(c6ccc7c(c6F)CN(C6CCC(=O)NC6=O)C7=O)CC5)CC4)cc3)c(=O)c2c1 (stereo partly drawn) [Example 79, (3R)—N-{2-cyano-3-[(3-{4-[4-({4-[2-(2,6-dioxopiperidin-3-yl)-4-fluoro-1-oxo-2,3-dihydro-1H-isoindol-5-yl]piperidin-1-yl}methyl)piperidin-1-yl]phenyl}-4-oxo-3,4-dihydroquinazolin-6-yl)oxy]-4-fluorophenyl}-3-fluoropyrrolidine-1-sulfonamide] | 50 to 500 | 35 to 70 | ≤ 1 | 35 to 70
4 | N#Cc1c(NS(=O)(=O)N2CC[C@@H](F)C2)ccc(F)c1Oc1ccc2ncn(-c3ccc(N4CCN(CC5CCN(c6ccc(NC7CCC(=O)NC7=O)cc6F)CC5)CC4)cc3)c(=O)c2c1 (stereo partly drawn) [Example 11, (3R)-N-(2-cyano-3-{[3-(4-{4-[(1-{4-[(2,6-dioxopiperidin-3-yl)amino]-2-fluorophenyl}piperidin-4-yl)methyl]piperazin-1-yl}phenyl)-4-oxo-3,4-dihydroquinazolin-6-yl]oxy}-4-fluorophenyl)-3-fluoropyrrolidine-1-sulfonamide] | 5 to 50 | 35 to 70 | > 30 | 
5 | Cn1c(=O)n(C2CCC(=O)NC2=O)c2ccc(N3CCC(CN4CCN(c5ccc(-n6cnc7ccc(Oc8c(F)ccc(NS(=O)(=O)N9CC[C@@H](F)C9)c8C#N)cc7c6=O)cc5)CC4)CC3)cc21 (stereo partly drawn) [Example 78, (3R)—N-{2-cyano-3-[(3-{4-[4-({1-[1-(2,6-dioxopiperidin-3-yl)-3-methyl-2-oxo-2,3-dihydro-1H-1,3-benzodiazol-5-yl]piperidin-4-yl}methyl)piperazin-1-yl]phenyl}-4-oxo-3,4-dihydroquinazolin-6-yl)oxy]-4-fluorophenyl}-3-fluoropyrrolidine-1-sulfonamide] | 5 to 50 | 35 to 70 | 1 to 10 | 35 to 70
6 | N#Cc1c(NS(=O)(=O)N2CC[C@@H](F)C2)ccc(F)c1Oc1ccc2ncn(-c3ccc(N4CCN(CC5CCN(c6ccc7c(c6)CN(C6CCC(=O)NC6=O)C7=O)CC5)CC4)cc3)c(=O)c2c1 (stereo partly drawn) [Example 1, (3R)—N-[2-cyano-3-[3-[4-[4-[[1-[2-(2,6-dioxo-3-piperidyl)-1-oxo-isoindolin-5-yl]-4-piperidyl]methyl]piperazin-1-yl]phenyl]-4-oxo-quinazolin-6-yl]oxy-4-fluoro-phenyl]-3-fluoro-pyrrolidine-1-sulfonamide] | 5 to 50 | 35 to 70 | ≤ 1 | 35 to 70
7 | N#Cc1c(NS(=O)(=O)N2CC[C@@H](F)C2)ccc(F)c1Oc1ccc2ncn(-c3ccc(N4CCN(CC5CCN(c6ccc(C7CCC(=O)NC7=O)cc6F)CC5)CC4)cc3)c(=O)c2c1 (stereo partly drawn) [Example 13, (3R)-N-{2-cyano-3-[(3-{4-[4-({1-[4-(2,6-dioxopiperidin-3-yl)-2-fluorophenyl]piperidin-4-yl}methyl)piperazin-1-yl]phenyl}-4-oxo-3,4-dihydroquinazolin-6-yl)oxy]-4-fluorophenyl}-3-fluoropyrrolidine-1-sulfonamide] | 5 to 50 | 35 to 70 | > 30 | 
8 | N#Cc1c(NS(=O)(=O)N2CC[C@@H](F)C2)ccc(F)c1Oc1ccc2ncn(-c3ccc(N4CCN(CC5CCN(c6ccc7c(c6)CN([C@H]6CCC(=O)NC6=O)C7=O)CC5)CC4)cc3)c(=O)c2c1 [Example 77, (3R)—N-(2-cyano-3-{[3-(4-{4-[(1-{2-[(3S)-2,6-dioxopiperidin-3-yl]-1-oxo-2,3-dihydro-1H-isoindol-5-yl}piperidin-4-yl)methyl]piperazin-1-yl}phenyl)-4-oxo-3,4-dihydroquinazolin-6-yl]oxy}-4-fluorophenyl)-3-fluoropyrrolidine-1-sulfonamide] | 50 to 500 | 35 to 70 | 1 to 10 | 35 to 70
9 | N#Cc1c(NS(=O)(=O)N2CC[C@@H](F)C2)ccc(F)c1Oc1ccc2ncn(-c3ccc(N4CCN(CC5CCN(c6ccc7c(c6)CN(C6CCC(=O)NC6=O)C7=O)CC5)CC4)nc3)c(=O)c2c1 (stereo partly drawn) [Example 3, (3R)—N-[2-cyano-3-[3-[6-[4-[[1-[2-(2,6-dioxo-3-piperidyl)-1-oxo-isoindolin-5-yl]-4-piperidyl]methyl]piperazin-1-yl]-3-pyridyl]-4-oxo-quinazolin-6-yl]oxy-4-fluoro-phenyl]-3-fluoro-pyrrolidine-1-sulfonamide] | 50 to 500 | ≤ 35 | 1 to 10 | 35 to 70
10 | N#Cc1c(NS(=O)(=O)N2CC[C@@H](F)C2)ccc(F)c1Oc1ccc2ncn(-c3cnc(N4CCN(c5ccc6c(c5)C(=O)N(C5CCC(=O)NC5=O)C6=O)CC4)nc3)c(=O)c2c1 (stereo partly drawn) [Example 31, (3R)-N-(2-cyano-3-{[3-(2-{4-[2-(2,6-dioxopiperidin-3-yl)-1,3-dioxo-2,3-dihydro-1H-isoindol-5-yl]piperazin-1-yl}pyrimidin-5-yl)-4-oxo-3,4-dihydroquinazolin-6-yl]oxy}-4-fluorophenyl)-3-fluoropyrrolidine-1-sulfonamide] | > 500 |  | > 30 | 
